According to patent publication US20240158446A1, “CYCLIC COMPOUND HAVING SELECTIVE INHIBITORY ACTION ON KRAS OVER HRAS AND NRAS” (CHUGAI SEIYAKU KABUSHIKI KAISHA, priority 2021, published 2024):
pIC50, pKd: −log10 of the molar value.

Legend:
[1] = system: human lung cancer strain NCI-H441;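 also: cell proliferation inhibition after four days measured by CellTiter-Glo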
[2] = target: GDP-bound NRAS wild-type protein (Homo sapiens, UniProt P01111); assay: Binding to NRAS by surface plasmon resonance (SPR), Single Cycle Kinetics; conditions: SPR KD ratio NRAS/KRAS, class symbols
[3] = target: GDP-bound KRAS wild-type protein (Homo sapiens, UniProt P01116); assay: Binding to KRAS by surface plasmon resonance (SPR), Single Cycle Kinetics; conditions: SPR Single Cycle Kinetics, GDP-bound KRAS wild-type protein, 1:1 binding model; read-out: KRAS KD
[4] = target: GDP-bound HRAS wild-type protein (Homo sapiens, UniProt P01112); assay: Binding to HRAS by surface plasmon resonance (SPR), Single Cycle Kinetics; conditions: SPR KD ratio HRAS/KRAS, class symbols
Sequence of GDP-bound HRAS wild-type protein (P01112 whole entry): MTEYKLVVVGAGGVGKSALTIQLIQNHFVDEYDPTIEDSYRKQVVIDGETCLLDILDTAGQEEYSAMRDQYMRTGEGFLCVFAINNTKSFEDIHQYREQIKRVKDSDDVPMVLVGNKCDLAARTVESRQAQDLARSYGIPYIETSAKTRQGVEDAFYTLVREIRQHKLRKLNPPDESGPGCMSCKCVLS

Sequence of GDP-bound KRAS wild-type protein (P01116 whole entry): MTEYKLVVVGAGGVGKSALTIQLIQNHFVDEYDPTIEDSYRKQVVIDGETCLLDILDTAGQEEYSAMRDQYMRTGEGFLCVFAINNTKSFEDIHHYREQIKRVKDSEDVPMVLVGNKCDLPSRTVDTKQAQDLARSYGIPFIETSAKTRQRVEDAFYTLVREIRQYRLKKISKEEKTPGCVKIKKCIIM
Sequence of GDP-bound NRAS wild-type protein (P01111 whole entry): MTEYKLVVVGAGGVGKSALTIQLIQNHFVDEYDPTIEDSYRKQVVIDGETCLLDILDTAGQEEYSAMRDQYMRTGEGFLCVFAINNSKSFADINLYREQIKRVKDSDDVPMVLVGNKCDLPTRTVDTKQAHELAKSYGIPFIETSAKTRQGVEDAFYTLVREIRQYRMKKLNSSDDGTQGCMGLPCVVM

Compound | pIC50 [1] | NRAS/KRAS (ratio of KD value with respect to GDP-bound NRAS wild-type protein to KD value with respect to KRAS) [2] | pKd [3] | HRAS/KRAS (ratio of KD value with respect to GDP-bound HRAS wild-type protein to KD value with respect to KRAS) [4]
CCC[C@H]1C(=O)N[C@@H]([C@@H](C)CC)C(=O)N(C)CC(=O)N(C)[C@H]2C/C=C\CCN(C2=O)[C@@H](Cc2ccc(C)cc2)C(=O)N(C)CC(=O)N[C@@H](CCc2ccc(Cl)c(Cl)c2)C(=O)N2C[C@H](OC3CCC3)C[C@H]2C(=O)NC2(CC(C)(C)C2)C(=O)N(C)[C@@H](C(CC)CC)C(=O)N(C)[C@H](C(=O)N(C)C)CC(=O)N1C [PP2644] | 7.12 | AA (a compound having 20 or more is denoted as AA) | 9.09 | A (a compound having 10 or more and less than 20 is denoted as A)
CCC(CC)[C@H]1C(=O)N(C)[C@H](C(=O)N(C)C)CC(=O)N(C)[C@@H](COC)C(=O)N[C@@H]([C@@H](C)CC)C(=O)N2CCC[C@H]2C(=O)N(C)[C@H]2C/C=C\CCN(C2=O)[C@@H](Cc2ccc(C(F)(F)F)cc2)C(=O)N(C)CC(=O)N[C@@H](CCc2ccc(Cl)c(Cl)c2)C(=O)N2C[C@H](OC3CCC3)C[C@H]2C(=O)NC2(CC(C)(C)C2)C(=O)N1C [PP2645] | 7.06 | AA (a compound having 20 or more is denoted as AA) | 8.96 | A (a compound having 10 or more and less than 20 is denoted as A)
CCC[C@H]1C(=O)N[C@@H]([C@@H](C)CC)C(=O)N2CCC[C@H]2C(=O)N(C)[C@H]2C/C=C\CCN(C2=O)[C@@H](Cc2ccc(C(F)F)cc2)C(=O)N(C)CC(=O)N[C@@H](CCc2ccc(Cl)c(Cl)c2)C(=O)N2C[C@H](OC3CCC3)C[C@H]2C(=O)NC2(CC(C)(C)C2)C(=O)N(C)[C@@H](C(CC)CC)C(=O)N(C)[C@H](C(=O)N(C)C)CC(=O)N1C [PP2646] | 7.03 | AA (a compound having 20 or more is denoted as AA) | 8.80 | A (a compound having 10 or more and less than 20 is denoted as A)
CCC(CC)[C@H]1C(=O)N(C)[C@H](C(=O)N(C)C)CC(=O)N(C)[C@@H](COC)C(=O)N[C@@H]([C@@H](C)CC)C(=O)N(C)CC(=O)N(C)[C@H]2C/C=C\CCN(C2=O)[C@@H](Cc2ccc(C(F)(F)F)cc2)C(=O)N(C)CC(=O)N[C@@H](CCc2ccc(Cl)c(Cl)c2)C(=O)N2C[C@H](OC3CCCC3)C[C@H]2C(=O)NC2(CC(C)(C)C2)C(=O)N1C [PP2648] | 7.16 | A (a compound having 10 or more and less than 20 is denoted as A) | 9.07 | A (a compound having 10 or more and less than 20 is denoted as A)
CCC(CC)[C@H]1C(=O)N(C)[C@H](C(=O)N(C)C)CC(=O)N(C)[C@@H](COC)C(=O)N[C@@H]([C@@H](C)CC)C(=O)N(C)CC(=O)N(C)[C@H]2C/C=C\CCN(C2=O)[C@@H](Cc2ccc(C(F)F)cc2)C(=O)N(C)CC(=O)N[C@@H](CCc2ccc(Cl)c(Cl)c2)C(=O)N2C[C@H](OC3CCCC3)C[C@H]2C(=O)NC2(CC(C)(C)C2)C(=O)N1C [PP2649] | 7.21 | AA (a compound having 20 or more is denoted as AA) | 9.40 | A (a compound having 10 or more and less than 20 is denoted as A)
CCC(CC)[C@H]1C(=O)N(C)[C@H](C(=O)N(C)C)CC(=O)N(C)[C@@H](COC)C(=O)N[C@@H]([C@@H](C)CC)C(=O)N2CCC[C@H]2C(=O)N(C)[C@H]2C/C=C\CCN(C2=O)[C@@H](Cc2ccc(C(F)(F)F)cc2)C(=O)N(C)CC(=O)N[C@@H](CCc2ccc(Cl)c(Cl)c2)C(=O)N2C[C@H](OC3CCCC3)C[C@H]2C(=O)NC2(CC(C)(C)C2)C(=O)N1C [PP2651] | 6.83 | AA (a compound having 20 or more is denoted as AA) | 8.72 | A (a compound having 10 or more and less than 20 is denoted as A)
CCC(CC)[C@H]1C(=O)N(C)[C@H](C(=O)N(C)C)CC(=O)N(C)[C@@H](COC)C(=O)N[C@@H]([C@@H](C)CC)C(=O)N2CCC[C@H]2C(=O)N(C)[C@H]2C/C=C\CCN(C2=O)[C@@H](Cc2ccc(C(F)F)cc2)C(=O)N(C)CC(=O)N[C@@H](CCc2ccc(Cl)c(Cl)c2)C(=O)N2C[C@H](OC3CCCC3)C[C@H]2C(=O)NC2(CC(C)(C)C2)C(=O)N1C [PP2652] | 7.08 | AA (a compound having 20 or more is denoted as AA) | 8.82 | A (a compound having 10 or more and less than 20 is denoted as A)
CC[C@H](C)[C@@H]1NC(=O)[C@H](COC)N(C)C(=O)C[C@@H](C(=O)N(C)C)N(C)C(=O)[C@H](C2CCCCC2)N(C)C(=O)C2(CC(C)(C)C2)NC(=O)[C@@H]2C[C@@H](OC(C)C)CN2C(=O)[C@H](CCc2cc(F)c(C(F)(F)F)c(F)c2)NC(=O)CN(C)C(=O)[C@H](Cc2ccc(C(F)(F)F)cc2)N2CC/C=C\C[C@@H](C2=O)N(C)C(=O)CN(C)C1=O [PP2654] | 7.91 | A (a compound having 10 or more and less than 20 is denoted as A) | 9.92 | A (a compound having 10 or more and less than 20 is denoted as A)
CC[C@H](C)[C@@H]1NC(=O)[C@H](COC)N(C)C(=O)C[C@@H](C(=O)N(C)C)N(C)C(=O)[C@H](C2CCCCC2)N(C)C(=O)C2(CC(C)(C)C2)NC(=O)[C@@H]2C[C@@H](OC3CCC3)CN2C(=O)[C@H](CCc2cc(F)c(C(F)(F)F)c(F)c2)NC(=O)CN(C)C(=O)[C@H](Cc2ccc(C(F)(F)F)cc2)N2CC/C=C\C[C@@H](C2=O)N(C)C(=O)CN(C)C1=O [PP2655] | 7.77 | AA (a compound having 20 or more is denoted as AA) | 10.00 | A (a compound having 10 or more and less than 20 is denoted as A)
CC[C@H](C)[C@@H]1NC(=O)[C@H](COC)N(C)C(=O)C[C@@H](C(=O)N(C)C)N(C)C(=O)[C@H](C2CCCCC2)N(C)C(=O)C2(CC(C)(C)C2)NC(=O)[C@@H]2C[C@@H](OC3CCCC3)CN2C(=O)[C@H](CCc2cc(F)c(C(F)(F)F)c(F)c2)NC(=O)CN(C)C(=O)[C@H](Cc2ccc(C(F)(F)F)cc2)N2CC/C=C\C[C@@H](C2=O)N(C)C(=O)CN(C)C1=O [PP2656] | 7.65 | A (a compound having 10 or more and less than 20 is denoted as A) | 9.51 | B (a compound having 3 or more and less than 10 is denoted as B)
CCO[C@@H]1C[C@H]2C(=O)NC3(CC(C)(C)C3)C(=O)N(C)[C@@H](C3CCCCC3)C(=O)N(C)[C@H](C(=O)N(C)C)CC(=O)N(C)[C@@H](COC)C(=O)N[C@@H]([C@@H](C)CC)C(=O)N(C3CC3)CC(=O)N(C)[C@H]3C/C=C\CCN(C3=O)[C@@H](Cc3ccc(C(F)(F)F)cc3)C(=O)N(C)CC(=O)N[C@@H](CCc3cc(F)c(C(F)(F)F)c(F)c3)C(=O)N2C1 [PP2657] | 7.53 | A (a compound having 10 or more and less than 20 is denoted as A) | 9.36 | A (a compound having 10 or more and less than 20 is denoted as A)
CCO[C@@H]1C[C@H]2C(=O)NC3(CC(C)(C)C3)C(=O)N(C)[C@@H](C3CCCCC3)C(=O)N(C)[C@H](C(=O)N(C)C)CC(=O)N(C)[C@@H](COC)C(=O)N[C@@H]([C@@H](C)CC)C(=O)N(C)CC(=O)N(C)[C@H]3C/C=C\CCN(C3=O)[C@@H](Cc3ccc(C)cc3)C(=O)N(C)CC(=O)N[C@@H](CCc3cc(F)c(C(F)(F)F)c(F)c3)C(=O)N2C1 [PP2659] | 7.69 | A (a compound having 10 or more and less than 20 is denoted as A) | 9.72 | A (a compound having 10 or more and less than 20 is denoted as A)
CC[C@H](C)[C@@H]1NC(=O)[C@H](COC)N(C)C(=O)C[C@@H](C(=O)N(C)C)N(C)C(=O)[C@H](C2CCCCC2)N(C)C(=O)C2(CC(C)(C)C2)NC(=O)[C@@H]2C[C@@H](OC(C)C)CN2C(=O)[C@H](CCc2cc(F)c(C(F)(F)F)c(F)c2)NC(=O)CN(C)C(=O)[C@H](Cc2ccc(C)cc2)N2CC/C=C\C[C@@H](C2=O)N(C)C(=O)CN(C)C1=O [PP2660] | 7.84 | A (a compound having 10 or more and less than 20 is denoted as A) | 9.74 | A (a compound having 10 or more and less than 20 is denoted as A)
